In assay [1] the target is T1, KRas^G12D (Homo sapiens, UniProt P01116, G12D).
T1 construct: Biotinylated KRas (corresponding to amino acids 1-169, produced at Accelegan Inc.); biotin (biotinylated); purchased Accelegan Inc
The assay can be described thus: KRas binding assay (TR-FRET tracer displacement), KRas G12D.

Assay [2] relates to KRas-mediated phosphorylation of ERK in H727 cells. The assay can be described thus: Inhibition of KRas-mediated phosphorylation of ERK (Cisbio HTRF pERK), H727 cells. Format: cell-based. Conditions: HTRF pERK. In outline: (§1)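 Cells were seeded at 6,000 per well and treated for 3 hrs with compound in a 10-dose, 3-fold series from 10 uM (0.8% final DMSO), with 0.2 uM Trametinib as Min control. Lysates made at 4° C over 40 mins were incubated 2 hrs at room temperature with d2- and Cryptate-labelled antibodies, then read by HTRF.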
(In general: TR-FRET usually uses a lanthanide donor and a delayed reading to cut background.)

Assay [3] concerns the target T2, KRas^G12R (Homo sapiens, UniProt P01116, G12R).
T2 construct: Biotinylated KRas (corresponding to amino acids 1-169, produced at Accelegan Inc.); biotin (biotinylated); purchased Accelegan Inc
Put plainly: KRas binding assay (TR-FRET tracer displacement), KRas G12R.

Assay [4] deals with T3, KRas^G12V (Homo sapiens, UniProt P01116, G12V).
T3 construct: Biotinylated KRas (corresponding to amino acids 1-169, produced at Accelegan Inc.); biotin (biotinylated); purchased Accelegan Inc
The assay can be described thus: KRas binding assay (TR-FRET tracer displacement), KRas G12V.

Assay [5] concerns KRas-mediated phosphorylation of ERK in AsPC-1 cells. The assay can be described thus: Inhibition of KRas-mediated phosphorylation of ERK (Cisbio HTRF pERK), AsPC-1 cells. Format: cell-based. Conditions: HTRF pERK. In outline:
as §1

The mark [6] stands for this setting: Homo sapiens, NCI-H727, H727 cells.
Where [7] appears, read: Homo sapiens, ASPC1, AsPC-1 cells.

T1 sequence (P01116 1-169 isoform P01116-2 G12D): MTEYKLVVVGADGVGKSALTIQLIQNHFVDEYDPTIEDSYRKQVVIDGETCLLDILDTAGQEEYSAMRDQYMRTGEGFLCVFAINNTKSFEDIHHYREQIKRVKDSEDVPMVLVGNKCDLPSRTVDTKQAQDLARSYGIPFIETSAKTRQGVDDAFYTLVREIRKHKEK
T2 sequence (P01116 1-169 isoform P01116-2 G12R): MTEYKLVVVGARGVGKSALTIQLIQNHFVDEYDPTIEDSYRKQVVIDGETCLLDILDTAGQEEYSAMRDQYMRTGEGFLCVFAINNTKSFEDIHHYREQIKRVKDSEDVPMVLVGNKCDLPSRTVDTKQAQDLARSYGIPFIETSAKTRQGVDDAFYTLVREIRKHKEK
T3 sequence (P01116 1-169 isoform P01116-2 G12V): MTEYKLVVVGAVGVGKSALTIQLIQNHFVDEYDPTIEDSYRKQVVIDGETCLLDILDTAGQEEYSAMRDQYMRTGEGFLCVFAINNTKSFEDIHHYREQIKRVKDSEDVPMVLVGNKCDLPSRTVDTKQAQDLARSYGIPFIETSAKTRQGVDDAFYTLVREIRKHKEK

Broadly, the IC50 is the concentration that inhibits the measured activity by half. High values mean a need for much substance, low ones inhibition by little substance. As for `CCc1c(F)ccc2cc(O)cc(-c3ncc4c(N5C[C@H]6CC[C@@]6(O)C5)nc(OC[C@@]56CCCN5C[C@H](F)C6)nc4c3F)c12` [Example 546, (1S,5R)-3-(7-(8-ethyl-7-fluoro-3-hydroxynaphthalen-1-yl)-8-fluoro-2-(((2R,7aS)-2-fluorohexahydro-1H-pyrrolizin-7a-yl)methoxy)pyrido[4,3-d]pyrimidin-4-yl)-3-azabicyclo[3.2.0]heptan-1-ol], the concentration for half-maximal inhibition (IC50) in assay [1] is 72 nM; in assay [2] (setting [6]) it was 1010 nM; in assay [3], 37 nM; in assay [4] it was 35 nM; in assay [5] (setting [7]), 1830 nM.
In the same order, the values of `CCc1c(F)ccc2cc(O)cc(-c3ncc4c(NS(=O)(=O)C5CCCNCC5)nc(OC[C@@]56CCCN5C[C@H](F)C6)nc4c3F)c12` (stereo partly drawn) [Example 632, N-(7-(8-ethyl-7-fluoro-3-hydroxynaphthalen-1-yl)-8-fluoro-2-(((2R,7aS)-2-fluorotetrahydro-1H-pyrrolizin-7a(5H)-yl)methoxy)pyrido[4,3-d]pyrimidin-4-yl)azepane-4-sulfonamide] are 2180 nM, over 10000 nM, 1870 nM, 1200 nM and over 10000 nM.
For `CCc1c(F)ccc2cc(O)cc(-c3ncc4c(N5CCCC(C6CCNC6=O)C5)nc(OC[C@@]56CCCN5C[C@H](F)C6)nc4c3F)c12` (single isomer, unassigned) [Example 618], the IC50 was 644 nM in assay [1]; over 10000 nM in assay [2] (H727 cells); 195 nM in assay [3]; 168 nM in assay [4]; over 10000 nM in assay [5] (AsPC-1 cells).
In the case of `CCc1c(F)ccc2cc(O)cc(-c3ncc4c(N5CCOCC6(CCS(=O)(=O)CC6)C5)nc(OC[C@@]56CCCN5C[C@H](F)C6)nc4c3F)c12` [Example 667, 11-(7-(8-ethyl-7-fluoro-3-hydroxynaphthalen-1-yl)-8-fluoro-2-(((2R,7aS)-2-fluorohexahydro-1H-pyrrolizin-7a-yl)methoxy)pyrido[4,3-d]pyrimidin-4-yl)-8-oxa-3-thia-11-azaspiro[5.6]dodecane 3,3-dioxide], the IC50 in assay [1] was 445 nM; in assay [2] (setting [6]), 6050 nM; in assay [3] it was 323 nM; in assay [4], 203 nM; in assay [5] (setting [7]) it was 6150 nM.
Taken in the same sequence, the figures for `CCc1c(F)ccc2cc(O)cc(-c3ncc4c(N5CCCC(S(N)(=O)=O)CC5)nc(OC[C@@]56CCCN5C[C@H](F)C6)nc4c3F)c12` (stereo partly drawn) [Example 631, 1-(7-(8-ethyl-7-fluoro-3-hydroxynaphthalen-1-yl)-8-fluoro-2-(((2R,7aS)-2-fluorotetrahydro-1H-pyrrolizin-7a(5H)-yl)methoxy)pyrido[4,3-d]pyrimidin-4-yl)azepane-4-sulfonamide] were 9 nM, 1600 nM, 33 nM, 12 nM and 3130 nM.
Taken in the same sequence, the figures for `CCc1c(F)ccc2cc(O)cc(-c3ncc4c(N5CC6CCC(CCC(N)=O)(C6)C5)nc(OC[C@@]56CCCN5C[C@H](F)C6)nc4c3F)c12` (stereo partly drawn) [Example 910, 3-(3-(7-(8-ethyl-7-fluoro-3-hydroxynaphthalen-1-yl)-8-fluoro-2-(((2R,7aS)-2-fluorotetrahydro-1H-pyrrolizin-7a(5H)-yl)methoxy)pyrido[4,3-d]pyrimidin-4-yl)-3-azabicyclo[3.2.1]octan-1-yl)propanamide] were 22 nM, 1670 nM, 9 nM, 8 nM and 8160 nM.
With `CCc1c(F)ccc2cc(O)cc(-c3ncc4c(N5CCCC(C6CCNC6=O)C5)nc(OC[C@@]56CCCN5C[C@H](F)C6)nc4c3F)c12` (single isomer, unassigned) [Example 619], the IC50 in assay [1] stood at 33 nM; in assay [2] (H727 cells) it was 1810 nM; in assay [3], 4 nM; in assay [4], 21 nM; in assay [5] (AsPC-1 cells), 3620 nM.
